According to patent US10968203B2, “Pyrimidinyl-pyridyloxy-naphthyl compounds and methods of treating IRE1-related diseases and disorders” (Genentech, Inc., priority 2017, dated 2021):
Counter-ions that a name gives are not always drawn.

The compounds below were run on XBP1s-luc 293 LUC (assay: cellular PD assay, XBP1s-LUC reporter (Example 903)). Settings: Table 1; read-out: XBP1s-luc 293 LUC (IC50).
Format: cell-based
How it was run: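 Cellular IRE1α pathway activity was quantified from the luciferase signal of an XBP1-Luc reporter, where the luciferase fusion is in frame and expressed only from the spliced XBP1 transcript.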

| SMILES | IC50 [nM] |
| --- | --- |
| Cc1ccc2c(NC(=O)CC(F)(F)F)cccc2c1Oc1ncccc1-c1ccnc(N[C@H]2CCCNC2)n1 [Example 252, (S)-3,3,3-Trifluoro-N-(6-methyl-5-(3-(2-(piperidin-3-ylamino)pyrimidin-4-yl)pyridin-2-yloxy)naphthalen-1-yl)propanamide] | 134 |
| Cc1ccc2c(Oc3ncccc3-c3ccnc(N[C@H]4CCCNC4)n3)c(C)ccc2c1NS(=O)(=O)CC(C)C [Example 376, (S)—N-(2,6-Dimethyl-5-((3-(2-(piperidin-3-ylamino)pyrimidin-4-yl)pyridin-2-yl)oxy)naphthalen-1-yl)-2-methylpropane-1-sulfonamide] | 73.5 |
| Cc1ccc2c(NC(=O)CC3CC3)cccc2c1Oc1ncccc1-c1ccnc(N[C@H]2CCCNC2)n1 [Example 191, (S)-2-Cyclopropyl-N-(6-methyl-5-((3-(2-(piperidin-3-ylamino)pyrimidin-4-yl)pyridin-2-yl)oxy)naphthalen-1-yl)acetamide] | 234 |
| Cc1ccc2c(NC(=O)C3CC3)c(F)ccc2c1Oc1ncccc1-c1ccnc(N[C@H]2CCCNC2)n1 [Example 271, (S)—N-(2-Fluoro-6-methyl-5-((3-(2-(piperidin-3-ylamino)pyrimidin-4-yl)pyridin-2-yl)oxy)naphthalen-1-yl)cyclopropanecarboxamide] | 271 |
| Cc1ccc2c(NC(=O)CC3CCCCC3)c(F)ccc2c1Oc1ncccc1-c1ccnc(N[C@@H]2CNC[C@H](C)C2)n1 [Example 366, 2-Cyclohexyl-N-(2-fluoro-6-methyl-5-((3-(2-(((3S,5R)-5-methylpiperidin-3-yl)amino)pyrimidin-4-yl)pyridin-2-yl)oxy)naphthalen-1-yl)acetamide] | 101 |
| Cc1ccc2c(NS(=O)(=O)CC(C)C)cccc2c1Oc1ncccc1-c1ccnc(N[C@@H]2CNC[C@H](C)C2)n1 [Example 304, 2-Methyl-N-(6-methyl-5-((3-(2-(((3S,5R)-5-methylpiperidin-3-yl)amino)pyrimidin-4-yl)pyridin-2-yl)oxy)naphthalen-1-yl)propane-1-sulfonamide] | 105 |
| CCC(=O)Nc1cccc2c(Oc3ncccc3-c3ccnc(N[C@H]4CCCNC4)n3)c(C)ccc12 [Example 173, (S)—N-(6-Methyl-5-((3-(2-(piperidin-3-ylamino)pyrimidin-4-yl)pyridin-2-yl)oxy)naphthalen-1-yl)propionamide] | 226 |
| Cc1ccc2c(NS(=O)(=O)Cc3ccccc3F)cccc2c1Oc1ncccc1-c1ccnc(N[C@H]2CCCNC2)n1 [Example 145, (S)-1-(2-Fluorophenyl)-N-(6-methyl-5-((3-(2-(piperidin-3-ylamino)pyrimidin-4-yl)pyridin-2-yl)oxy)naphthalen-1-yl)methanesulfonamide] | 15 |
| Cc1ccc2c(NS(=O)(=O)Cc3cccc(Cl)c3)cccc2c1Oc1ncccc1-c1ccnc(N[C@H]2CCCNC2)n1 [Example 144, (S)-1-(3-Chlorophenyl)-N-(6-methyl-5-((3-(2-(piperidin-3-ylamino)pyrimidin-4-yl)pyridin-2-yl)oxy)naphthalen-1-yl)methanesulfonamide] | 25 |
| Cc1ccc2c(NC(=O)CC(C)(C)C)cccc2c1Oc1ncccc1-c1ccnc(N[C@@H]2CNC[C@H](C)C2)n1 [Example 302, 3,3-Dimethyl-N-(6-methyl-5-((3-(2-(((3S,5R)-5-methylpiperidin-3-yl)amino)pyrimidin-4-yl)pyridin-2-yl)oxy)naphthalen-1-yl)butanamide] | 93.5 |
| Cc1ccc2c(NC[C@@H](O)C(F)(F)F)cccc2c1Oc1ncccc1-c1ccnc(N[C@H]2CCCNC2)n1 [Example 298, (R)-1,1,1-Trifluoro-3-((6-methyl-5-((3-(2-((S)-piperidin-3-ylamino)pyrimidin-4-yl)pyridin-2-yl)oxy)naphthalen-1-yl)amino)propan-2-ol] | 67.2 |
| Cc1ccc2c(NS(=O)(=O)N3CCCCC3)cccc2c1Oc1ncccc1-c1ccnc(N[C@H]2CCCNC2)n1 [Example 114, (S)—N-(6-Methyl-5-((3-(2-(piperidin-3-ylamino)pyrimidin-4-yl)pyridin-2-yl)oxy)naphthalen-1-yl)piperidine-1-sulfonamide hydrochloride] | 382 |
| Cc1ccc2c(NC(=O)C(C)(C)C#N)cccc2c1Oc1ncccc1-c1ccnc(N[C@H]2CCCNC2)n1 [Example 363, (S)-2-Cyano-2-methyl-N-(6-methyl-5-((3-(2-(piperidin-3-ylamino)pyrimidin-4-yl)pyridin-2-yl)oxy)naphthalen-1-yl)propanamide] | 408 |
| Cc1ccc2c(NS(=O)(=O)Cc3ccccc3CF)cccc2c1Oc1ncccc1-c1ccnc(N[C@H]2CCCNC2)n1 [Example 170, (S)-1-(2-(Fluoromethyl)phenyl)-N-(6-methyl-5-((3-(2-(piperidin-3-ylamino)pyrimidin-4-yl)pyridin-2-yl)oxy)naphthalen-1-yl)methanesulfonamide] | 15 |
| Cc1ccc2c(NCCC#N)cccc2c1Oc1ncccc1-c1ccnc(N[C@H]2CCCNC2)n1 [Example 329, (S)-3-((6-Methyl-5-((3-(2-(piperidin-3-ylamino)pyrimidin-4-yl)pyridin-2-yl)oxy)naphthalen-1-yl)amino)propanenitrile] | 123 |
| Cc1ccc2c(NC(=O)[C@H]3C[C@H]3F)cccc2c1Oc1ncccc1-c1ccnc(N[C@H]2CCCNC2)n1 [Example 222, (1R,2R)-2-Fluoro-N-[6-methyl-5-[[3-[2-[[(3S)-3-piperidyl]amino]pyrimidin-4-yl]-2-pyridyl]oxy]-1-naphthyl]cyclopropanecarboxamide] | 93 |
| Cc1ccc2c(NC(=O)Cc3ccccc3F)cccc2c1Oc1ncccc1-c1ccnc(N[C@H]2CCCNC2)n1 [Example 177, (S)-2-(2-Fluorophenyl)-N-(6-methyl-5-((3-(2-(piperidin-3-ylamino)pyrimidin-4-yl)pyridin-2-yl)oxy)naphthalen-1-yl)acetamide] | 108 |
| CCCS(=O)(=O)Nc1cccc2c(Oc3ncc(CC)cc3-c3ccnc(N[C@H]4CCCNC4)n3)c(C)ccc12 [Example 259, (S)—N-(5-((5-ethyl-3-(2-(piperidin-3-ylamino)pyrimidin-4-yl)pyridin-2-yl)oxy)-6-methylnaphthalen-1-yl)propane-1-sulfonamide] | 361 |
| Cc1ccc2c(NS(=O)(=O)Cc3ccccn3)cccc2c1Oc1ncccc1-c1ccnc(N[C@@H]2CNC[C@H](F)C2)n1 [Example 225, N-(5-((3-(2-(((3S,5R)-5-Fluoropiperidin-3-yl)amino)pyrimidin-4-yl)pyridin-2-yl)oxy)-6-methylnaphthalen-1-yl)-1-(pyridin-2-yl)methanesulfonamide] | 467 |
| Cc1ccc2c(NC(=O)CC3(C)CCCC3)cccc2c1Oc1ncccc1-c1ccnc(N[C@H]2CCCNC2)n1 [Example 267, (S)—N-(6-Methyl-5-((3-(2-(piperidin-3-ylamino)pyrimidin-4-yl)pyridin-2-yl)oxy)naphthalen-1-yl)-2-(1-methylcyclopentyl)acetamide] | 162 |
| Cc1ccc2c(NS(=O)(=O)CC(C)C)c(F)ccc2c1Oc1ncccc1-c1ccnc(N[C@@H]2CNC[C@@H](F)C2)n1 (single isomer, unassigned) [Example 208] | 18.2 |
| Cc1ccc2c(NS(=O)(=O)CCC(C)C)c(F)ccc2c1Oc1ncccc1-c1ccnc(N[C@H]2CCCNC2)n1 [Example 243, (S)—N-(2-Fluoro-6-methyl-5-((3-(2-(piperidin-3-ylamino)pyrimidin-4-yl)pyridin-2-yl)oxy)naphthalen-1-yl)-3-methylbutane-1-sulfonamide] | 68 |
| Cc1ccc2c(NC(=O)[C@@H]3CC3C3CC3)cccc2c1Oc1ncccc1-c1ccnc(N[C@H]2CCCNC2)n1 (single isomer, unassigned) [Example 274] | 100 |

Same assay, conditions: Table 2; read-out: XBP1s-luc 293 LUC (IC50)

| SMILES | IC50 [nM] |
| --- | --- |
| Cc1ccc2c(NS(=O)(=O)N3CCCC3)c(F)ccc2c1Oc1ncccc1-c1ccnc(N[C@H]2CCCNC2)n1 [Example 428, N-[2-Fluoro-6-methyl-5-[[3-[2-[[(3S)-3-piperidyl]amino]pyrimidin-4-yl]-2-pyridyl]oxy]-1-naphthyl]pyrrolidine-1-sulfonamide hydrochloride] | 28 |
| Cc1ccc2c(NS(=O)(=O)CC3CCC3)c(F)ccc2c1Oc1ncccc1-c1ccnc(N[C@H]2CCCNC2)n1 [Example 400, (S)-1-Cyclobutyl-N-(2-fluoro-6-methyl-5-((3-(2-(piperidin-3-ylamino)pyrimidin-4-yl)pyridin-2-yl)oxy)naphthalen-1-yl)methanesulfonamide hydrochloride] | 26 |
| Cc1nc(CS(=O)(=O)Nc2c(F)ccc3c(Oc4ncccc4-c4ccnc(N[C@H]5CNC[C@H](F)C5)n4)c(C)ccc23)cs1 (single isomer, unassigned) [Example 491, hydrochloride] | 117 |
| Cc1ccc2c(NS(=O)(=O)CC3CC(F)(F)C3)c(F)ccc2c1Oc1ncccc1-c1ccnc(N[C@H]2CCCNC2)n1 [Example 433, (S)-1-(3,3-Difluorocyclobutyl)-N-(2-fluoro-6-methyl-5-((3-(2-(piperidin-3-ylamino)pyrimidin-4-yl)pyridin-2-yl)oxy)naphthalen-1-yl)methanesulfonamide] | 76 |
| Cc1ccc2c(NS(=O)(=O)Cc3ccccc3)cccc2c1Oc1ncccc1-c1ccnc(N[C@@H]2CNC[C@H](C)C2)n1 [Example 479, N-[6-Methyl-5-[[3-[2-[[(3S,5R)-5-methyl-3-piperidyl]amino]pyrimidin-4-yl]-2-pyridyl]oxy]-1-naphthyl]-1-phenyl-methanesulfonamide] | 12 |
| CCCN(C)S(=O)(=O)Nc1c(F)ccc2c(Oc3ncccc3-c3ccnc(N[C@H]4CCCNC4)n3)c(C)ccc12 [Example 420, 4-[2-[[6-Fluoro-2-methyl-5-[[methyl(propyl)sulfamoyl]amino]-1-naphthyl]oxy]-3-pyridyl]-2-[[(3S)-3-piperidyl]amino]pyrimidine hydrochloride] | 41 |
| Cc1ccc2c(NS(=O)(=O)CC(F)(F)C(F)(F)F)c(F)ccc2c1Oc1ncccc1-c1ccnc(N[C@H]2CCCNC2)n1 [Example 439, (S)-2,2,3,3,3-Pentafluoro-N-(2-fluoro-6-methyl-5-((3-(2-(piperidin-3-ylamino)pyrimidin-4-yl)pyridin-2-yl)oxy)naphthalen-1-yl)propane-1-sulfonamide hydrochloride] | 155 |
